By Ki is commonly meant a dissociation constant, usually derived from enzyme kinetics or from competition with a known ligand. The low end stands for a stronger hold on the target, the high end for a looser hold on the target.

One test deals with Adenosine receptor A2a (Homo sapiens, UniProt P29274).
Adenosine receptor A2a (Homo sapiens, UniProt P29274), sequence (P29274 whole entry): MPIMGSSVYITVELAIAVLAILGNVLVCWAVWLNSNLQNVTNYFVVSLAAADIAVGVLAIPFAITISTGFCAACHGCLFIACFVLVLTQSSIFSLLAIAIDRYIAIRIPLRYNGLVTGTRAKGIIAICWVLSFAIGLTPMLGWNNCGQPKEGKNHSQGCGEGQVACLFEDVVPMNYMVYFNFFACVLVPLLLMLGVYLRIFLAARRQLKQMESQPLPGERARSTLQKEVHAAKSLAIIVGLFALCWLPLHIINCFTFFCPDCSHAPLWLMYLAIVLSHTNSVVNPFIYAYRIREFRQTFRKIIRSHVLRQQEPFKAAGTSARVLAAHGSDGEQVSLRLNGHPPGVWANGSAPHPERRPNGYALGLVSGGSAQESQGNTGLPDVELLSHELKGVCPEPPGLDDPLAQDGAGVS
On to `CCCCn1c(=O)c2c(ncn2C)n(C)c1=O` [NSC_70835], for which the Ki was more than 10000 nM.
On the same count and under the same terms, in the case of `CCn1c(=O)c2nc[nH]c2n(CC)c1=O` [NSC_101420] it was more than 10000 nM; in that of `Cn1c(=O)c2nc(-c3ccccc3N)[nH]c2n(C)c1=O` [8-(2-Aminophenyl)theophylline], 1430 nM.
On the same count and under the same terms, in the case of `COc1ccc(-c2nc3c([nH]2)c(=O)n(C)c(=O)n3C)cc1` [8-(4-methoxyphenyl)-1,3-dimethyl-1H-purine-2,6(3H,7H)-dione] it was 419 nM; in that of `O=c1nc2[nH]c3ccccc3nc-2c(=O)[nH]1`, 2720 nM; in that of `Cn1c(=O)c2[nH]c(-c3ccc(S(=O)(=O)O)cc3)nc2n(C)c1=O` [4-(1,3-Dimethyl-2,6-dioxo-2,3,6,7-tetrahydro-1H-purin-8-yl)-benzenesulfonic acid], more than 10000 nM.
Still for that read-out and setting: in the case of `Cn1c(=O)c2[nH]c(-c3ccc(Cl)cc3)nc2n(C)c1=O` it was 371 nM; in that of `Cn1c(=O)c2[nH]c(-c3ccc(C(=O)O)cc3)nc2n(C)c1=O` [8-(4-Carboxyphenyl)theophylline], 7260 nM.
`CCCn1c(=O)c2nc(-c3ccc(N)cc3N)[nH]c2n(CCC)c1=O` displayed a Ki of 214 nM.
`CCCc1nc2c([nH]1)c(=O)n(C)c(=O)n2C` registered a Ki of more than 10000 nM.
For the compound `CCCCNc1c(C(=O)OCC)c(C)nc2c1cnn2CC` [NSC_5522], the Ki was determined as 1560 nM.
Same read-out and setting: with `Cn1c(=O)c2[nH]c(-c3ccc(N)cc3)nc2n(C)c1=O` the figure was 391 nM.
For the compound `CC(C)Cn1c(=O)n(C)c(=O)c2[nH]cnc21` [1-methyl-3-(2-methylpropyl)-2,3,6,7-tetrahydro-1H-purine-2,6-dione], the Ki is more than 10000 nM.
Same read-out and setting: with `Cn1c(=O)c2[nH]c(-c3ccc([N+](=O)[O-])cc3)nc2n(C)c1=O` [8-(4-Nitrophenyl)theophylline] the figure was 2520 nM; with `Cn1c(=O)[nH]c2nc[nH]c2c1=O` [1-Methyl-3,9-dihydro-purine-2,6-dione(1-methylxanthine)], more than 10000 nM; with `CCCCNc1c(C(=O)OCC)cnc2c1cnn2CC` [ethyl 4-(butylamino)-1-ethyl-1H-pyrazolo[3,4-b]pyridine-5-carboxylate], 2240 nM.
In turn, `CCCn1c(=O)c2[nH]c(-c3ccc(Cl)cc3N)nc2n(CCC)c1=O` [NSC_92411] showed a Ki of 91.9 nM.
Still for that read-out and setting: in the case of `CCn1c(=O)c2c(ncn2C)n(C)c1=O` [NSC_93219] it was more than 10000 nM; in that of `Cn1c(=O)c2c(ncn2CCCl)n(C)c1=O` [7-(2-Chloroethyl)theophylline], more than 10000 nM.
On the same count and under the same terms, with `Cn1c(=O)c2nc(-c3cccs3)[nH]c2n(C)c1=O` [CAS_267102] the figure was 1580 nM.

The target of a further test is Adenosine receptor A2a (Rattus norvegicus, UniProt P30543).
Adenosine receptor A2a (Rattus norvegicus, UniProt P30543), sequence (P30543 whole entry): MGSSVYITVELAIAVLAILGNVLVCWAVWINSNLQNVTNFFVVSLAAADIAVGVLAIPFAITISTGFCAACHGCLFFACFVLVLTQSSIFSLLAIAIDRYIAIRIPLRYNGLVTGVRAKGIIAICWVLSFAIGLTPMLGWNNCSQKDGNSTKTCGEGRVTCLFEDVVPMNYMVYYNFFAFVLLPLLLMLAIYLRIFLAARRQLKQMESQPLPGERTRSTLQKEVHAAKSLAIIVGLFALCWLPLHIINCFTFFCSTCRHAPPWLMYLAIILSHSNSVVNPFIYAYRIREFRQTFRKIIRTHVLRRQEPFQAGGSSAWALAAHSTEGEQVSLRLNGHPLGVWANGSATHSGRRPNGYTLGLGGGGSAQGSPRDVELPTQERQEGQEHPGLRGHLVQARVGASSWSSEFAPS
`Nc1ncnc2c1ncn2[C@@H]1O[C@H](CO[N+](=O)[O-])[C@@H](O)[C@H]1O` [5'-O-Nitroado] came in with a Ki of 335 nM. This lies in the sub-micromolar range.
Same read-out and setting: with `Nc1nc(=O)[nH]c2c1ncn2[C@@H]1O[C@H](CO)[C@@H](O)[C@H]1O` [CAS_1818-71-9] the figure was 331 nM; with `O=c1[nH]c2c(ncn2[C@@H]2O[C@H](CO)[C@@H](O)[C@H]2O)c2nccn12` [1,N6-Ehteno-2-oxoado], more than 10000 nM; with `Nc1ncnc2c1ncn2[C@@H]1O[C@H](NC(=O)C2CCCCC2)[C@@H](O)[C@H]1O` [Ado-5'-cyclohexylcarboxamide], 4300 nM.
On the same count and under the same terms, in the case of `Nc1nccc2c1ncn2[C@@H]1O[C@H](CO)[C@@H](O)[C@H]1O` [CAS_6736-58-9] it was more than 10000 nM; in that of `CNc1ncnc2c1ncn2[C@H]1C[C@H](O)[C@@H](CO)O1` [2'-Deoxy-N6-methylado], more than 10000 nM; in that of `CCC(=O)OC[C@H]1O[C@@H](n2cnc3c(N)ncnc32)[C@H](O)[C@@H]1O` [Ado-5'-ethylcarboxylate], 387 nM.
The same measure, in the same setting: in the case of `Nc1nccc2c1SCN2[C@@H]1O[C@H](CO)[C@@H](O)[C@H]1O` [7-Thia-9deazaado] it was more than 10000 nM; in that of `COc1ccc(-c2nc(N)c3ncn([C@@H]4O[C@H](CO)[C@@H](O)[C@H]4O)c3n2)cc1` [2-(4-Methoxyphenyl)ado (CV-1674)], 605 nM; in that of `Cn1c(N)c2ncn([C@@H]3O[C@H](CO)[C@@H](O)[C@H]3O)c2nc1=O` [1-Methyl-2-oxoado], 3250 nM.
As for `CSC[C@H]1O[C@@H](n2cnc3c(N)nc(Cl)nc32)[C@H](O)[C@@H]1O` [2-Chloro-5'-methylthioado], the Ki came to 1880 nM.
The same measure, in the same setting: in the case of `Nc1nc(NC2CCCC2)nc2c1ncn2[C@@H]1O[C@H](CO)[C@@H](O)[C@H]1O` it was 462 nM; in that of `Nc1ncnc2c1ncn2[C@@H]1O[C@H](CI)[C@@H](O)[C@H]1O` [5'-Deoxy-5'-iodoado], 637 nM.
Same read-out and setting: with `CC(=O)OCC1O[C@@H](n2cnc3c(N)ncnc32)[C@H](O)[C@@H]1O` (some centres undefined) [5'-O-Acetylado] the figure was 4510 nM; with `NC(=O)OC[C@H]1O[C@@H](n2cnc3c(N)ncnc32)[C@H](O)[C@@H]1O` [Ado-5'-carboxamide], 120 nM; with `CSC[C@H]1O[C@@H](n2cnc3c(N)ncnc32)[C@H](O)[C@@H]1O` [(2R,3R,4S,5S)-2-(6-aminopurin-9-yl)-5-(methylsulfanylmethyl)oxolane-3,4-diol], 1100 nM.
The same measure, in the same setting: with `Nc1ncnc2c1ncn2[C@@H]1O[C@H](CNC(=O)C2CC2)[C@@H](O)[C@H]1O` [Ado-5'-cyclopropylcarboxamide] the figure was 13.4 nM; with `NC(=O)CCOC[C@H]1O[C@@H](n2cnc3c(N)ncnc32)[C@H](O)[C@@H]1O` [Ado-5'-(2-hydroxyethyl)carboxamide], 57.5 nM; with `OC[C@H]1O[C@@H](n2cnc3c(NCc4ccccc4)ncnc32)[C@H](O)[C@@H]1O` [N6-benzylado], 285 nM.

(Values after BindingDB's records for PubMed 3010074 (Warner-Lambert/Parke-Davis Pharmaceutical Research, 1986).)
